Laboratory results reported in ChEMBL document CHEMBL5365478, “Structure-Based Design and Synthesis of Stapled 10Panx1 Analogues for Use in Cardiovascular Inflammatory Diseases” (J Med Chem, 2023).
Active and inactive are the calls of the source. The calls are words filed in the database; no cut-off is given here. Bridge positions count the residues as written; N and C are the ends. Square brackets hold non-standard residues; d marks the D form. Triazole bridges read from a SMILES are 1,4-linked. Peptide text beside a SMILES is read from it. Lys(N3) = [N-]=[N+]=NCCCC[C@H](N)C(=O)O; Hpra = C#CCC[C@H](N)C(=O)O; Pra = C#CC[C@H](N)C(=O)O; Ahx = NCCCCCC(=O)O

Experiments:
[1] = Stability in PBS at pH 7.4 assessed as conserved alpha-helical profile at 200 uM at 20 to 90 degreeC by CD spectra analysis; assay type: physicochemical; conditions: buffer, pH 7.4, 200 µM
[2] = target: Pannexin-1 (Rattus norvegicus) (UniProt P60570); assay: Inhibition of PANX1 in rat H9C2 cells assessed as reduction in HOS-induced ATP release at 12.5 to 100 uM preincubated for 10 mins followed by HOS solution addition and measured after 30 mins by bioluminescence analysis; assay type: cell-based; conditions: dose 12.5-100 µM, time 40.0 min
Chain of Pannexin-1 (Rattus norvegicus) (P60570 whole entry): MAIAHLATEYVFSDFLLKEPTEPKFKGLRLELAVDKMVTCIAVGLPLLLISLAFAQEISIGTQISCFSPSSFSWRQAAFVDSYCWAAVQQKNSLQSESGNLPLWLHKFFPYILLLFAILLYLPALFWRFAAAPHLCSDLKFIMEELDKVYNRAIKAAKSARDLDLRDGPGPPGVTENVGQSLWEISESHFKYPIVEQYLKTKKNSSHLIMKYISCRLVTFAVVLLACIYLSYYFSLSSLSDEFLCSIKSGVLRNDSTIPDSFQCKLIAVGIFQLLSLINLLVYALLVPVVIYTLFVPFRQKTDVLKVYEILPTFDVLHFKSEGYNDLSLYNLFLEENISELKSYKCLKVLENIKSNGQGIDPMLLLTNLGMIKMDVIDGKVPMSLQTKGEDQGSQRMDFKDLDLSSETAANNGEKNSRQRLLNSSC

[3] = target: Pannexin-1 (Mus musculus) (UniProt Q9JIP4); assay: Inhibition of PANX1 in mouse B16-BL6 cells assessed as reduction in HOS-induced ATP release at around 10 nM preincubated for 10 mins followed by HOS solution addition and measured after 30 mins by bioluminescence analysis; assay type: cell-based; conditions: time 40.0 min
Chain of Pannexin-1 (Mus musculus) (Q9JIP4 whole entry): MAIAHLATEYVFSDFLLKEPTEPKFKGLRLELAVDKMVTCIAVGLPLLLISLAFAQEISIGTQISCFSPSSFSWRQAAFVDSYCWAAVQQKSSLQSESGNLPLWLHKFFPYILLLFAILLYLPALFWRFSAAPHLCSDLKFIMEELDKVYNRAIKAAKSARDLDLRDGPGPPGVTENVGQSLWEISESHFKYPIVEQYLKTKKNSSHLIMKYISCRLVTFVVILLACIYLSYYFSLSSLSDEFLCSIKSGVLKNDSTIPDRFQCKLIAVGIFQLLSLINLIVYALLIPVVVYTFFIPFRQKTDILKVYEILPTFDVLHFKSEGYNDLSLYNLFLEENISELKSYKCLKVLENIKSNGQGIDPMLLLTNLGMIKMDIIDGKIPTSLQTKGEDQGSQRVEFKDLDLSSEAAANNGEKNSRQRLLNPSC

EA.hy 926 [4] = assay: Antiinflammatory activity in TNF-alpha stimulated human EA.hy926 cells cocultured with human THP-1 cells assessed as inhibition of monocyte adhesion at 100 uM incubated for 15 mins followed by adhesion for 2 hrs; assay type: functional, cell-based; conditions: time 135.0 min
B16-BL6 [5] = assay: Cytotoxicity against mouse B16-BL6 cells at 6.25 to 100 uM incubated for 30 mins with compound in HOS solution by LDH assay; assay type: toxicity, cell-based; conditions: b16-bl6, 0.5 h, dose 6.25-100 µM
[6] = target: Pannexin-1 (Mus musculus) (UniProt Q9JIP4); assay: Inhibition of PANX1 in mouse B16-BL6 cells assessed as reduction in HOS-induced ATP release preincubated for 10 mins followed by HOS solution addition and measured after 30 mins by bioluminescence analysis; assay type: cell-based; conditions: dose 6.25-400 µM, time 40.0 min
[7] = target: Pannexin-1 (Homo sapiens) (UniProt Q96RD7); assay: Inhibition of PANX1 in human EA.hy 926 cells assessed as reduction in HOS-induced ATP release at 12.5 to 100 uM preincubated for 10 mins followed by HOS solution addition and measured after 30 mins by bioluminescence analysis; assay type: cell-based; conditions: dose 12.5-100 µM, time 40.0 min
Chain of Pannexin-1 (Homo sapiens) (Q96RD7 whole entry): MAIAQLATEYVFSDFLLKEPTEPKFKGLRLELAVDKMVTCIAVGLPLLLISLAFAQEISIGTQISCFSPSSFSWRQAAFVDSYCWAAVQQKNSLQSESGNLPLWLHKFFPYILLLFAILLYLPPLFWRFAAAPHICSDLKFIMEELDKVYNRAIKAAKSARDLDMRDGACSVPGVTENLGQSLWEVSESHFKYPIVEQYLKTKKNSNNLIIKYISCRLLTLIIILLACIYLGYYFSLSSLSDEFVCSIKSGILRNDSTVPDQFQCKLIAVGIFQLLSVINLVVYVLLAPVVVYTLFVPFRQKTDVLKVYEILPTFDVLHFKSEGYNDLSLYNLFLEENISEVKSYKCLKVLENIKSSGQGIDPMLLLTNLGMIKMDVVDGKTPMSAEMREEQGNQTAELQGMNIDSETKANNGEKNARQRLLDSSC

EA.hy 926 [8] = assay: Cytotoxicity against human EA.hy 926 cells at 12.5 to 100 uM incubated for 30 mins with compound in HOS solution by LDH assay; assay type: toxicity, cell-based; conditions: ea.hy 926, 0.5 h, dose 12.5-100 µM
[9] = target: Pannexin-1 (Mus musculus) (UniProt Q9JIP4); assay: Inhibition of PANX1 in mouse B16-BL6 cells assessed as reduction in HOS-induced Yo-Pro-1 uptake by measuring reduction in green fluorescence at 12.5 uM preincubated for 10 mins followed by HOS solution addition and measured after 30 mins by fluorescence based analysis; assay type: cell-based; conditions: time 40.0 min
[10] = target: Pannexin-1 (Mus musculus) (UniProt Q9JIP4); assay: Inhibition of PANX1 in mouse B16-BL6 cells assessed as reduction in HOS-induced Yo-Pro-1 uptake by measuring reduction in green fluorescence at 2.5 mM preincubated for 10 mins followed by HOS solution addition and measured after 30 secs to 30 mins by fluorescence based analysis; assay type: cell-based; conditions: time 10.5-40 min
[11] = target: Pannexin-1 (Homo sapiens) (UniProt Q96RD7); assay: Inhibition of PANX1 in human EA.hy 926 cells assessed as reduction in HOS-induced ATP release at 2.5 mM preincubated for 10 mins followed by HOS solution addition and measured after 30 mins by bioluminescence analysis; assay type: cell-based; conditions: time 40.0 min
[12] = target: Pannexin-1 (Rattus norvegicus) (UniProt P60570); assay: Inhibition of PANX1 in rat H9C2 cells assessed as reduction in HOS-induced ATP release at 2.5 mM preincubated for 10 mins followed by HOS solution addition and measured after 30 mins by bioluminescence analysis; assay type: cell-based; conditions: time 40.0 min
B16-BL6 [13] = assay: Cytotoxicity against mouse B16-BL6 cells at 2.5 mM incubated for 30 mins with compound in HOS solution by LDH assay; assay type: toxicity, cell-based; conditions: b16-bl6, 0.5 h, 2500 µM
[14] = target: Pannexin-1 (Homo sapiens) (UniProt Q96RD7); assay: Inhibition of PANX1 in human EA.hy 926 cells assessed as reduction in HOS-induced ATP release preincubated for 10 mins followed by HOS solution addition and measured after 30 mins by bioluminescence analysis; assay type: cell-based; conditions: time 40.0 min
[15] = target: Pannexin-1 (Mus musculus) (UniProt Q9JIP4); assay: Inhibition of PANX1 in mouse B16-BL6 cells assessed as reduction in HOS-induced ATP release at 100 uM preincubated for 10 mins followed by HOS solution addition and measured after 30 mins by bioluminescence analysis; assay type: cell-based; conditions: time 40.0 min
B16-BL6 [16] = assay: Cytotoxicity against mouse B16-BL6 cells at 1.56 to 100 uM incubated for 30 mins with compound in HOS solution by LDH assay; assay type: toxicity, cell-based; conditions: b16-bl6, 0.5 h, dose 1.56-100 µM
EA.hy 926 [17] = assay: Antiinflammatory activity in TNF-alpha stimulated human EA.hy926 cells cocultured with human THP-1 cells assessed as inhibition of monocyte adhesion at 12.5 uM incubated for 15 mins followed by adhesion for 2 hrs; assay type: functional, cell-based; conditions: time 135.0 min
[18] = target: Pannexin-1 (Homo sapiens) (UniProt Q96RD7); assay: Inhibition of PANX1 in human EA.hy 926 cells assessed as reduction in HOS-induced ATP release at 12.5 uM preincubated for 10 mins followed by HOS solution addition and measured after 30 mins by bioluminescence analysis relative to control; assay type: cell-based; conditions: time 40.0 min
[19] = Stability in human plasma assessed as intact parent compound level measured after 24 hrs by LC-MS analysis; assay type: ADME, cell-free; conditions: read-out: Stability
[20] = target: Pannexin-1 (Mus musculus) (UniProt Q9JIP4); assay: Inhibition of PANX1 in mouse B16-BL6 cells assessed as reduction in HOS-induced ATP release at 12.5 uM preincubated for 10 mins followed by HOS solution addition and measured after 30 mins by bioluminescence analysis; assay type: cell-based; conditions: time 40.0 min
B16-BL6 [21] = assay: Cytotoxicity against mouse B16-BL6 cells at 12.5 to 100 uM incubated for 30 mins with compound in HOS solution by LDH assay; assay type: toxicity, cell-based; conditions: b16-bl6, 0.5 h, dose 12.5-100 µM
[22] = target: Pannexin-1 (Mus musculus) (UniProt Q9JIP4); assay: Inhibition of PANX1 in mouse B16-BL6 cells assessed as reduction in HOS-induced ATP release at 100 uM preincubated for 10 mins followed by HOS solution addition and measured after 30 mins by bioluminescence analysis relative to control; assay type: cell-based; conditions: time 40.0 min
[23] = Stability in human plasma assessed as half life at 1.2 mM incubated for 30 mins by LC-MS analysis; assay type: ADME, cell-free
[24] = target: Pannexin-1 (Homo sapiens) (UniProt Q96RD7); assay: Inhibition of PANX1 in human EA.hy 926 cells assessed as reduction in HOS-induced ATP release at 100 uM preincubated for 10 mins followed by HOS solution addition and measured after 30 mins by bioluminescence analysis; assay type: cell-based; conditions: time 40.0 min
EA.hy 926 [25] = assay: Antiinflammatory activity in TNF-alpha stimulated human EA.hy926 cells cocultured with human THP-1 cells assessed as inhibition of monocyte adhesion at 100 uM incubated for 15 mins followed by adhesion for 2 hrs relative to control; assay type: functional; conditions: EA.hy 926, 2.25 h, time 135 min
[26] = target: Pannexin-1 (Mus musculus) (UniProt Q9JIP4); assay: Inhibition of PANX1 in mouse B16-BL6 cells assessed as reduction in HOS-induced Yo-Pro-1 uptake by measuring reduction in green fluorescence at 100 uM preincubated for 10 mins followed by HOS solution addition and measured after 30 mins by fluorescence based analysis relative to control; assay type: cell-based; conditions: time 40.0 min

Compound	inhibition [2]	Activity (B16-BL6 [5])	inhibition [6]	Activity (EA.hy 926 [8])	inhibition [9]	inhibition [15]	Activity (B16-BL6 [16])	also measured
CC(=O)N[C@@H](CO)C(=O)N[C@@H](Cc1c[nH]c2ccccc12)C(=O)N[C@@H](CCCNC(=N)N)C(=O)N[C@@H](CCC(N)=O)C(=O)N[C@@H](C)C(=O)N[C@H]1Cc2cn(nn2)CCCC[C@@H](C(=O)N[C@@H](Cc2ccc(O)cc2)C(N)=O)NC(=O)[C@H](CC(=O)O)NC(=O)[C@H](C(C)C)NC(=O)[C@H](Cc2ccccc2)NC1=O	inactive	Non-Toxic	Dose-Dependent Effect	Non-Toxic	inactive			Stability [1]: Stable; inhibition [3]: inactive; inhibition (EA.hy 926 [4]): Active; inhibition [7]: Active
CCCN(CCC)S(=O)(=O)c1ccc(C(=O)O)cc1 [PROBENECID]								inhibition [10]: Active; inhibition [11]: Active; inhibition [12]: inactive; Activity (B16-BL6 [13]): Non-Toxic
CC(C)[C@H](NC(=O)[C@H](Cc1ccccc1)NC(=O)[C@H](C)NC(=O)[C@H](C)NC(=O)[C@H](CCC(N)=O)NC(=O)[C@H](CCCNC(=N)N)NC(=O)[C@H](Cc1c[nH]c2ccccc12)NC(=O)CCCCCNC(=O)[C@@H](N)CCCCN)C(=O)N[C@@H](CC(=O)O)C(=O)N[C@@H](CO)C(=O)N[C@@H](Cc1ccc(O)cc1)C(=O)O (H-K[Ahx]WRQAAFVDSY-OH)								inhibition [14]: Active
CC(=O)N[C@H]1Cc2cn(nn2)CCCC[C@@H](C(=O)N[C@@H](C)C(=O)N[C@@H](Cc2ccccc2)C(=O)N[C@H](C(=O)N[C@@H](CC(=O)O)C(=O)N[C@@H](CO)C(=O)N[C@@H](Cc2ccc(O)cc2)C(N)=O)C(C)C)NC(=O)[C@H](CCC(N)=O)NC(=O)[C@H](CCCNC(=N)N)NC(=O)[C@H](Cc2c[nH]c3ccccc23)NC1=O	inactive	Non-Toxic	Dose-Dependent Effect	Non-Toxic	inactive			inhibition (EA.hy 926 [4]): Active; inhibition [7]: Active
CC(=O)N[C@H]1CCc2cn(nn2)CCCC[C@@H](C(=O)N[C@@H](C)C(=O)N[C@@H](Cc2ccccc2)C(=O)N[C@H](C(=O)N[C@@H](CC(=O)O)C(=O)N[C@@H](CO)C(=O)N[C@@H](Cc2ccc(O)cc2)C(N)=O)C(C)C)NC(=O)[C@H](CCC(N)=O)NC(=O)[C@H](CCCNC(=N)N)NC(=O)[C@H](Cc2c[nH]c3ccccc23)NC1=O (Ac-[Hpra]WRQ[Lys(N3)]AFVDSY-NH2; triazole 1-5)						Active	Non-Toxic	
CC(=O)N[C@@H](CO)C(=O)N[C@@H](Cc1c[nH]c2ccccc12)C(=O)N[C@@H](CCCNC(=N)N)C(=O)N[C@@H](CCC(N)=O)C(=O)N[C@@H](C)C(=O)N[C@@H]1Cc2cn(nn2)CCCC[C@@H](C(=O)N[C@@H](Cc2ccc(O)cc2)C(N)=O)NC(=O)[C@H](CC(=O)O)NC(=O)[C@H](C(C)C)NC(=O)[C@H](Cc2ccccc2)NC1=O						inactive	Non-Toxic	
CC(C)[C@@H]1NC(=O)[C@H](Cc2ccccc2)NC(=O)[C@@H](NC(=O)[C@@H]2CCCCn3cc(nn3)C[C@H](NC(=O)CCCCCNC(=O)[C@@H](N)CCCCN)C(=O)N[C@@H](Cc3c[nH]c4ccccc34)C(=O)N[C@@H](CCCNC(=N)N)C(=O)N[C@@H](CCC(N)=O)C(=O)N2)Cc2cn(nn2)CCCC[C@@H](C(=O)N[C@@H](Cc2ccc(O)cc2)C(N)=O)NC(=O)[C@H](CC(=O)O)NC1=O (H-K[Ahx][Pra]WRQ[Lys(N3)][Pra]FVD[Lys(N3)]Y-NH2; triazole 3-7, 8-12)				Non-Toxic				inhibition (EA.hy 926 [17]): Active; inhibition [18]: 25%; remaining at 24 h [19]: 20%
CC(=O)N[C@H]1Cc2cn(nn2)CCCC[C@@H](C(=O)N[C@H]2Cc3cn(nn3)CCCC[C@@H](C(=O)N[C@@H](Cc3ccc(O)cc3)C(N)=O)NC(=O)[C@H](CC(=O)O)NC(=O)[C@H](C(C)C)NC(=O)[C@H](Cc3ccccc3)NC2=O)NC(=O)[C@H](CCC(N)=O)NC(=O)[C@H](CCCNC(=N)N)NC(=O)[C@H](Cc2c[nH]c3ccccc23)NC1=O (Ac-[Pra]WRQ[Lys(N3)][Pra]FVD[Lys(N3)]Y-NH2; triazole 1-5, 6-10)								inhibition [20]: Active; Activity (B16-BL6 [21]): Non-Toxic; inhibition [22]: 48%
CC(C)[C@H](NC(=O)[C@H](Cc1ccccc1)NC(=O)[C@H](C)NC(=O)[C@H](C)NC(=O)[C@H](CCC(N)=O)NC(=O)[C@H](CCCNC(=N)N)NC(=O)[C@@H](N)Cc1c[nH]c2ccccc12)C(=O)N[C@@H](CC(=O)O)C(=O)N[C@@H](CO)C(=O)N[C@@H](Cc1ccc(O)cc1)C(=O)O (H-WRQAAFVDSY-OH)	inactive	Non-Toxic	Dose-Dependent Effect	Non-Toxic	inactive			half-life at 1200 µM [23]: 2.27 min; inhibition [24]: Active; inhibition at 100 µM (EA.hy 926 [25]): 17%; inhibition [26]: 14%; inhibition [18]: 35%
CC(=O)N[C@H]1CCCCn2cc(nn2)C[C@@H](C(=O)N[C@@H](C)C(=O)N[C@@H](Cc2ccccc2)C(=O)N[C@H](C(=O)N[C@@H](CC(=O)O)C(=O)N[C@@H](CO)C(=O)N[C@@H](Cc2ccc(O)cc2)C(N)=O)C(C)C)NC(=O)[C@H](CCC(N)=O)NC(=O)[C@H](CCCNC(=N)N)NC(=O)[C@H](Cc2c[nH]c3ccccc23)NC1=O (Ac-[Lys(N3)]WRQ[Pra]AFVDSY-NH2; triazole 1-5)						Active	Non-Toxic	
